In patent US20260284165A1, “COMPOSITIONS AND METHODS FOR TREATMENT OR P[…] OF CANCER INCLUDING TRIPLE NEGATIVE BREAST CANCER AND/OR LUNG CANCER” (The Medical College of Wisconsin, Inc., priority 2023, published 2026):

Test system: splenocytes
Assay: IFNγ ELISPOT in splenocytes, cyclin E2 and KIF15 epitopes
Type: cell-based, mice
Conditions: after four immunizations
Source text: We developed both cyclin E2 and KIF15 MHC-II vaccines using the multi-scoring system to identify immunogenic epitopes (Table 4). […] This multi-antigen preventive vaccine should also help overcome antigen-negative variant escape that has been observed with single antigen vaccines. Currently, a mRNA vaccine is also in development that contains the epitopes of TOP2A, cyclin E2 or KIF15 and will test its efficacy and immune response in relevant preclinical animal models.

Sequence: AAALCHFTSIEVVKK [p298]
- type I immunity (IFNγ ELISPOT): elicited type I immunity

Sequence: SHNLRGVIPRSFEYL [p129]
- type I immunity (IFNγ ELISPOT): elicited type I immunity

Sequence: VVKSTSPVKLKTFKK [p334]
- type I immunity (IFNγ ELISPOT): elicited type I immunity
